{"source": "paper PMC5802278", "about": "“Molecular and cellular mechanisms of HIF prolyl hydroxylase inhibitors in clinical trials” (Chemical Science, 2017)", "key": {"[1]": {"target": "PHD2 (Homo sapiens, UniProt Q9GZT9)", "sequence (Q9GZT9 whole entry)": "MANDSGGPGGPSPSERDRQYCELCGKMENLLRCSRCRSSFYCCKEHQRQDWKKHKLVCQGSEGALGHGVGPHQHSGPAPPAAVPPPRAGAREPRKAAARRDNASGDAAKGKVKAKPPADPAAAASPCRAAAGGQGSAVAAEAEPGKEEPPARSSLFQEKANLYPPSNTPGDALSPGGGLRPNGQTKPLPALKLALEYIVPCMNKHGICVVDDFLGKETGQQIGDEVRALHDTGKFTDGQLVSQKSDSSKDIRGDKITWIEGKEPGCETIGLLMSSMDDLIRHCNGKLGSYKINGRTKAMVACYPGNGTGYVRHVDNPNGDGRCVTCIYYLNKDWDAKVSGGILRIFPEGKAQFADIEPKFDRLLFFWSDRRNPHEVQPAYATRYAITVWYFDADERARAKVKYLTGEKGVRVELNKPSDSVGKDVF", "test": "LC-MS based RapidFire PHD2 hydroxylation assay", "assay_type": "biochemical", "details": "150 nM isolated recombinant human PHD2, LC-MS based RapidFire assay", "method": "LC-MS PHD2 hydroxylation assays\nThe PHD2 RF-MS RapidFire liquid chromatography mass spectrometry (RF-MS) assay monitors turnover of a C-terminal oxygenase dependent domain (CODD) peptide substrate\n(Pro564) in an endpoint type assay format (typical enzyme incubation time of 15 minutes).\nTris(hydroxymethyl)aminomethane was from Fisher. Ferrous ammonium sulfate (FAS), 2-oxoglutarate (2OG) and L-ascorbic acid were from Sigma Aldrich; solutions of these were prepared freshly each day. All inhibition assays were carried out in 384-well polypropylene plates (Greiner Bio-One). PHD2 assays were performed in assay buffer (50 mM Tris.Cl pH\nwell polypropylene assay plates. The final assay concentration of DMSO was kept constant at 0.5%. PHD2 protein was prepared at a concentration of 300 nM in assay buffer and 25 μl dispensed across each 384-well assay plate. […]\nwater containing 0.1% formic acid onto the mass spectrometer. Peptide charge states were monitored in positive mode. Ion chromatogram data were extracted for the +2 charge state and peak area data integrated using RapidFire Integrator software (Agilent). % conversion of the CODD peptide substrate to the +16 hydroxylated peptide was calculated using the equation: % conversion = 100 x hydroxylated / (hydroxylated + non-hydroxylated peptide). IC50 values were determined from non-linear regression plots using GraphPad prism."}, "[2]": {"target": "PHD1 (Homo sapiens, UniProt Q96KS0)", "sequence (Q96KS0 whole entry, the tested form may be a part)": "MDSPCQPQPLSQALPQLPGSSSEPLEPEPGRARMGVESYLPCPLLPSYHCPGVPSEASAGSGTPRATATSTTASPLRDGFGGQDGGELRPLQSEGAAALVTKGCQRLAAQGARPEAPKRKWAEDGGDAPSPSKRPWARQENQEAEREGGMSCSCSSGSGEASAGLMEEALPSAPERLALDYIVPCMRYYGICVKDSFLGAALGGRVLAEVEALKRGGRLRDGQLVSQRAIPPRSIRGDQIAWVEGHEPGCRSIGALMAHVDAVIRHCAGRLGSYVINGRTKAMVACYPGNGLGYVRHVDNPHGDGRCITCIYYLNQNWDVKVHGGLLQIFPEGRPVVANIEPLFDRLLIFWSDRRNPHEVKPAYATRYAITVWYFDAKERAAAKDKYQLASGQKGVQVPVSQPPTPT", "test": "MALDI-TOF MS PHD hydroxylation assay", "assay_type": "biochemical", "protocol": "(§1) Protocols for in vitro PHD1–3 MALDI-TOF MS hydroxylation assays[30] and for the AlphaScreen histone demethylase assays[44] were as reported.\n(§2) Although sharing homologous C-terminal catalytic domains, the N-terminal regions of PHD1–3 vary. […] In vitro inhibition assays of the clinical trial PHD inhibitors (and some of their structurally related analogue) against 1 μM recombinant human PHD1–3 were performed.\n(§3) Fig. S11. In vitro PHD isoform selectivity profiling of PHD inhibitors. Inhibition of PHD inhibitors against human PHD125 -3 as assayed by MALDI-TOF MS (the protocol is described in Chan et al. ). Eight concentrations were used to obtained dose-response curve for each compound. Data points presented in the graph are mean with standard deviation, n=3. IC50 values (listed in Supplemental Table S3) were calculated using GraphPad Prism® 5.04.\n(§4) (1 picture or pasted object on this page, not shown here)"}, "[3]": {"target": "PHD3 (Homo sapiens, UniProt Q9H6Z9)", "sequence (Q9H6Z9 whole entry)": "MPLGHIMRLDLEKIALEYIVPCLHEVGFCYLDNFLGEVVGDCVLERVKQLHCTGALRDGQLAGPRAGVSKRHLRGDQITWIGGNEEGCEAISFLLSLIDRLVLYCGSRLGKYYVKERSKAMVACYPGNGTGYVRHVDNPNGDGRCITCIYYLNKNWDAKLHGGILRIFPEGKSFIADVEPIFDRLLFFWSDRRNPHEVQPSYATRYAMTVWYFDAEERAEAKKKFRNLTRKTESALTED", "test": "MALDI-TOF MS PHD hydroxylation assay", "assay_type": "biochemical", "protocol": "as §1, §2, §3, §4"}, "[4]": {"target": "PHD2 catalytic domain (residues 181-426) (Homo sapiens, UniProt Q9GZT9)", "sequence (Q9GZT9 181-426)": "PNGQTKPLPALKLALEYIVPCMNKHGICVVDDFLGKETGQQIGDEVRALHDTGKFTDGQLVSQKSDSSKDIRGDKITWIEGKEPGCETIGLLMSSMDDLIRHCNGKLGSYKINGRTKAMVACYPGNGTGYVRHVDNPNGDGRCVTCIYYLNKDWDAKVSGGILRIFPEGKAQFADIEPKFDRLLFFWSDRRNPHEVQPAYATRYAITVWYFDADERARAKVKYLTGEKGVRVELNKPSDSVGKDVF", "test": "1H CPMG NMR screening of equimolar enzyme-inhibitor mixture", "assay_type": "binding", "design": "The catalytic domain of human PHD2 (residues 181-426) was used in all; made in house", "details": "equimolar enzyme-inhibitor mixture (50 µM)"}, "[5]": {"system": "HIF-1α Pro402 (NODD), Pro564 (CODD) and Asn803 hydroxylation in RCC4 cells", "test": "Immunoblotting of HIF-1α hydroxylation in VHL-deficient RCC4 cells", "assay_type": "cell-based, human", "details": "6 hours; for inhibition of HIF-1α NODD and CODD hydroxylation: titration; for comparison of inhibition of NODD and CODD hydroxylation: RCC4 cells, 10, 50 and 100 μM", "protocol": "To test whether the cellular HIF-α induction occurs via inhibition of HIF-α hydroxylation, we utilized a Von Hippel–Lindau (VHL)-deficient renal cell carcinoma cell line RCC4, in which HIF-α is constitutively stabilized in normoxia due to loss of functional VHL.[77] We used antibodies specific for hydroxylation at the N-terminal and C-terminal oxygen-dependent degradation domains, Pro402 (NODD) and Pro564 (CODD) at HIF-1α.[78] HIF-1α hydroxylation status was analyzed after 6 hours treatment. […]. page 15: […]\nCell Culture and Immunoblotting\nHeLa and RCC4 cells were cultured in Dulbecco’s Modified Eagle’s Medium (DMEM; Sigma Aldrich D6546-500ML) supplemented with 10% fetal bovine serum (Sigma Aldrich F7524-500ML), 4 mM L-glutamine (Sigma Aldrich G7513- 100ML), 50 U/mL penicillin, and 50 μg/mL streptomycin (Sigma Aldrich P0781-100ML). Cells were seeded to reach 90-100% confluency prior to compound treatment. Cells were exposed to the inhibitor at a final concentration of 1% DMSO for 5-6 hours. For Fe(II) titration in the presence of inhibitors, ferric ammonium citrate was added to the cells for further 16 hours after 6 hours of incubation […]\nCells were harvested in urea/SDS buffer (6.7 M urea, 10 mM Tris-Cl pH 6.8, 10% glycerol, and1% SDS) supplemented with 1mM dithiothreitol following a phosphate-buffered saline (PBS) rinse. Cell extracts were analyzed with SDS-PAGE, electroblotted to polyvinylidene difluoride (PVDF) membrane (Millipore) and probed with the corresponding primary antibody for 1 hour at room temperature or overnight at 4 °C. The secondary antibody specific to primary antibody species conjugated with HRP were applied at room temperature for 1 hour.\nThe antibodies used for immonoblotting were as follows: pan-anti-HIF-1α (clone 54, BD Transduction Laboratories™), anti-HIF-1α Hyp402 (catalogue number 07-1585, Merck Millipore), anti-HIF-1α Hyp564 (D43B5, Cell Signaling), anti-HIF-1α HyN803 (a generous gift from Lee et al.15), PHD216, PHD316, and HRP-conjugated anti-β-actin (clone AC15, Abcam). Details of antibodies used are given in Tian et al.17 Detection of signal was achieved using SuperSignal™ West Dura Extended Duration Substrate kTM it (Thermo Scientific 34075, unless otherwise stated) either with film or ChemiDoc MP (BIO-RAD) imaging system. TM Quantification of the immunobloting signal was performed with Image Lab software from […]"}, "[6]": {"target": "FIH (Homo sapiens, UniProt Q9NWT6)", "sequence (Q9NWT6 whole entry)": "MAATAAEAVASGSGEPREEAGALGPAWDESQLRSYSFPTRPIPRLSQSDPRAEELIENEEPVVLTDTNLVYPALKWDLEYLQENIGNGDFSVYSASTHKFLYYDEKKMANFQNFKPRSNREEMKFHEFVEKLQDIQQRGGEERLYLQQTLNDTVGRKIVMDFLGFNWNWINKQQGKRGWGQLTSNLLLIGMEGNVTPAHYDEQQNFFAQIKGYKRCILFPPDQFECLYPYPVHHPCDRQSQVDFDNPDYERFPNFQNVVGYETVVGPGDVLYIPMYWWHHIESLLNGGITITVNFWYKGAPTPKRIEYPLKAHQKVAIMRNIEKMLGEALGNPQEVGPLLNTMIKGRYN", "test": "LC-MS (RapidFire) FIH hydroxylation assay", "assay_type": "biochemical"}, "[7]": {"details": "1μM isolated recombinant human PHD1, MALDI-TOF MS, read-out: IC50 PHD1"}, "[8]": {"details": "1μM isolated recombinant human PHD3, MALDI-TOF MS, read-out: IC50 PHD3"}}, "note": "Where two headings read alike, the source gives them in different places.", "data": [{"smiles": "CC(C)(C)OC(=O)c1ccc(-n2[nH]cc(-n3ccnn3)c2=O)nc1", "note": "[IOX4]", "values": [{"measurement": "IC50", "setting": "[1]", "result": 540, "unit": "nM"}, {"measurement": "IC50", "setting": "[2]; [7]", "result": 550, "unit": "nM"}, {"measurement": "IC50", "setting": "[3]; [8]", "result": 690, "unit": "nM"}, {"measurement": "binding by 1H CPMG NMR", "setting": "[4]", "result": "strong binding"}, {"measurement": "inhibition of HIF-1α NODD and CODD hydroxylation", "setting": "[5]; RCC4 cells", "result": "inhibited both NODD and CODD hydroxylation in a dose dependent manner"}]}, {"smiles": "O=c1c(-n2ccnn2)c[nH]n1-c1cc(N2CCOCC2)ncn1", "note": "[Molidustat]", "values": [{"measurement": "IC50", "setting": "[1]", "result": 1320, "unit": "nM"}, {"measurement": "IC50", "setting": "[2]; [7]", "result": 1450, "unit": "nM"}, {"measurement": "IC50", "setting": "[3]; [8]", "result": 720, "unit": "nM"}, {"measurement": "binding by 1H CPMG NMR", "setting": "[4]", "result": "strong binding"}, {"measurement": "comparison of inhibition of NODD and CODD hydroxylation", "setting": "[5]", "result": "weaker inhibition of both hydroxylation sites compared to FG-4592 and GSK1278863 at 10 μM"}, {"measurement": "inhibition of HIF-1α NODD and CODD hydroxylation", "setting": "[5]; RCC4 cells", "result": "inhibited both NODD and CODD hydroxylation in a dose dependent manner"}, {"measurement": "inhibition of HIF-1α Asn803 hydroxylation", "setting": "[5]; RCC4 cells, up to 100 μM", "result": "no sign of HIF-1α Asn803 hydroxylation inhibition"}, {"measurement": "IC50 for FIH relative to PHD2", "setting": "[6]; isolated protein assays, Table 1", "result": "> 100", "unit": "fold"}, {"measurement": "IC50", "setting": "[6]; isolated recombinant enzyme, read-out: IC50 FIH", "result": 66000, "unit": "nM"}]}, {"smiles": "O=C(O)CNC(=O)c1ncc(-c2cccc(Cl)c2)cc1O", "note": "[Vadadustat]", "values": [{"measurement": "IC50", "setting": "[2]; [7]", "result": 840, "unit": "nM"}, {"measurement": "IC50", "setting": "[3]; [8]", "result": 260, "unit": "nM"}, {"measurement": "inhibition of NODD hydroxylation", "setting": "[5]; RCC4 cells, 50 μM", "result": "no sign of PHD inhibition"}, {"measurement": "inhibition of NODD hydroxylation", "setting": "[5]; RCC4 cells, 100 μM", "result": "only slight inhibition"}, {"measurement": "inhibition of CODD hydroxylation", "setting": "[5]; RCC4 cells, up to 100 μM", "result": "no clear inhibition"}, {"measurement": "inhibition of hydroxylation of Asn803", "setting": "[5]; RCC4 cells, up to 200 μM", "result": "not observed"}]}, {"smiles": "Cc1nc(C(=O)NCC(=O)O)c(O)c2ccc(Oc3ccccc3)cc12", "note": "[FG-4592]", "values": [{"measurement": "IC50", "setting": "[2]; [7]", "result": 1400, "unit": "nM"}, {"measurement": "IC50", "setting": "[3]; [8]", "result": 1320, "unit": "nM"}, {"measurement": "comparison of inhibition of NODD and CODD hydroxylation", "setting": "[5]", "result": "greatest inhibition of CODD hydroxylation among the inhibitors"}, {"measurement": "inhibition of CODD hydroxylation", "setting": "[5]; RCC4 cells, 50 μM", "result": "clear inhibition"}, {"measurement": "inhibition of NODD hydroxylation", "setting": "[5]; RCC4 cells, 50 μM", "result": "significantly inhibited"}, {"measurement": "inhibition of HIF-1α NODD and CODD hydroxylation", "setting": "[5]; RCC4 cells", "result": "inhibited both NODD and CODD hydroxylation in a dose dependent manner"}, {"measurement": "inhibition of HIF-1α Asn803 hydroxylation", "setting": "[5]; RCC4 cells, up to 100 μM", "result": "no sign of HIF-1α Asn803 hydroxylation inhibition"}, {"measurement": "IC50", "setting": "[6]", "result": "> 100000", "unit": "nM"}]}, {"smiles": "O=C(O)CNC(=O)C1C(=O)N(C2CCCCC2)C(=O)N(C2CCCCC2)C1=O", "note": "[GSK1278863]", "values": [{"measurement": "IC50", "setting": "[2]", "result": 1500, "unit": "nM"}, {"measurement": "IC50", "setting": "[3]", "result": 610, "unit": "nM"}, {"measurement": "comparison of inhibition of NODD and CODD hydroxylation", "setting": "[5]", "result": "better inhibits NODD than CODD hydroxylation"}, {"measurement": "inhibition of HIF-1α NODD and CODD hydroxylation", "setting": "[5]; RCC4 cells", "result": "inhibited both NODD and CODD hydroxylation in a dose dependent manner"}, {"measurement": "inhibition of HIF-1α Asn803 hydroxylation", "setting": "[5]; RCC4 cells, up to 100 μM", "result": "no sign of HIF-1α Asn803 hydroxylation inhibition"}]}]}
